The numbers were not newly measured in US20040216174A1, “Screening assays for targets and drugs useful in treatment and prevention of lipid metabolism disorders” (priority 2003, published 2004), which cites them from elsewhere.

The subject of this data set is C. elegans. Particulars: treatment with antioxidant.

For the substance vitamin E, the “effect on germline development” value is reported as “slows down germline development”.
